From patent US20260042764A1, “COMPOSITIONS AND METHODS FOR INHIBITION OF KRAS” (TheRas, Inc., priority 2022, published 2026)

Tests used:
SW620 cells (KRAS G12V) = assay: Cell-based pERK HTRF assay in SW620 cell (Biological Example 4)
Method in brief: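 Read-out: HTRF pERK signal (excitation 320 nm, emission 615 nm) from lysates of SW620 cells after 4 h compound exposure. Dose range was 9 points, half-log steps from 1 μM, in 0.25% DMSO; antibody incubation ran 4–24 h at room temperature.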

[1] = target: T1, Avi-KRAS G12R (1-169) GppNHp/RAF1 RBD-3xFLAG (52-151) (Homo sapiens, UniProt P01116, G12R); assay: Raf1-KRAS G12R-GppNHP disruption HTRF assay (Biological Example 1); assay type: binding
T1 construct: Avi-KRAS G12R (1-169)
Method in brief: (§1)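 Percent activity versus DMSO (100%) was derived from HTRF signal after KRAS–RAF1 RBD protein mix was incubated 1 h at room temperature with shaking and detection reagents were added for a further 1 h.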

[2] = target: T2, Avi-KRAS G12D (2-169) GTP/RAF1 RBD-3xFLAG (51-131) (Homo sapiens, UniProt P01116, G12D); assay: Raf1-KRAS G12D-GTP disruption HTRF assay (Biological Example 3); assay type: binding; settings: KRAS G12D, GTP-loaded
T2 construct: Avi-KRAS G12D (2-169)
Method in brief: (§2)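 50 nM Avi-KRAS (2-169) GTP/RAF1 RBD complex; 75 nM RBD-Avi; pH 7.5 Tris buffer, 10% DMSO; cpd 30 μM top, 3x, 10 pts; 1 h RT, 700 rpm; HTRF, % of DMSO.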

[3] = target: T3, Avi-KRAS G12V (2-169) GTP/RAF1 RBD-3xFLAG (51-131) (Homo sapiens, UniProt P01116, G12V); assay: Raf1-KRAS G12V-GTP disruption HTRF assay (Biological Example 3); assay type: binding; settings: KRAS G12V, GTP-loaded
T3 construct: Avi-KRAS G12V (2-169)
Method in brief: as §2

[4] = target: T4, Avi-KRAS G12V (1-169) GppNHp/RAF1 RBD-3xFLAG (52-151) (Homo sapiens, UniProt P01116, G12V); assay: Raf1-KRAS G12V-GppNHP disruption HTRF assay (Biological Example 1); assay type: binding
T4 construct: Avi-KRAS G12V (1-169)
Method in brief: as §1

[5] = target: T5, Avi-KRAS WT (1-169) GppNHp/RAF1 RBD-3xFLAG (52-151) (Homo sapiens, UniProt P01116); assay: Raf1-KRAS WT-GppNHP disruption HTRF assay (Biological Example 1); assay type: binding
T5 construct: Avi-KRAS WT (1-169)
Method in brief: as §1

[6] = Homo sapiens, SW-620, SW620 (KRAS G12V) cells
[7] = Homo sapiens, SW-620, SW620 (KRAS G12V) cells, pERK HTRF, class symbols
[8] = KRAS G12R, GppNHp-loaded, class symbols
[9] = KRAS G12V, GppNHp-loaded, class symbols
[10] = KRAS WT, GppNHp-loaded, class symbols
[11] = Homo sapiens, SW-620, SW620 (KRAS G12V) cells, pERK HTRF
[12] = SW620 (KRAS G12V) cells, pERK HTRF
[13] = KRAS G12R, GppNHp-loaded, Table 11
[14] = KRAS G12V, GppNHp-loaded, Table 11
[15] = KRAS WT, GppNHp-loaded, Table 11

T3 sequence (P01116 2-169 isoform P01116-2 G12V): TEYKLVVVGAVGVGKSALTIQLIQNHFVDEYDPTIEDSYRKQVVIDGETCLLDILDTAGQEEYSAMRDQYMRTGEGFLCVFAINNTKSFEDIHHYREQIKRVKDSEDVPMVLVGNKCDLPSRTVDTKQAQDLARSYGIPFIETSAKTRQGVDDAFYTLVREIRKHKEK
T1 sequence (P01116 1-169 isoform P01116-2 G12R): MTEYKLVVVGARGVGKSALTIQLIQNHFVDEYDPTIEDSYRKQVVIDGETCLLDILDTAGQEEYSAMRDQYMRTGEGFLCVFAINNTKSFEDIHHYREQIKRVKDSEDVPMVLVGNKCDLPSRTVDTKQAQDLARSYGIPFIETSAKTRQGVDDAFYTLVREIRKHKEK
T5 sequence (P01116 1-169 isoform P01116-2): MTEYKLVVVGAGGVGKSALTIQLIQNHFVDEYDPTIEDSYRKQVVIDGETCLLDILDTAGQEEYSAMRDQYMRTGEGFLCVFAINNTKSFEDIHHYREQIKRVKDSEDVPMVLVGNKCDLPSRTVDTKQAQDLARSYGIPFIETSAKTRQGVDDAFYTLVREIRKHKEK
T2 sequence (P01116 2-169 isoform P01116-2 G12D): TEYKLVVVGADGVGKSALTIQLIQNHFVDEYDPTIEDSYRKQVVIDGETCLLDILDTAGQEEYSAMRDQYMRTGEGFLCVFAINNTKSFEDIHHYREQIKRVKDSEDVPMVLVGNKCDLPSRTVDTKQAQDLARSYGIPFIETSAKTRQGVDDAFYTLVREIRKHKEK
T4 sequence (P01116 1-169 isoform P01116-2 G12V): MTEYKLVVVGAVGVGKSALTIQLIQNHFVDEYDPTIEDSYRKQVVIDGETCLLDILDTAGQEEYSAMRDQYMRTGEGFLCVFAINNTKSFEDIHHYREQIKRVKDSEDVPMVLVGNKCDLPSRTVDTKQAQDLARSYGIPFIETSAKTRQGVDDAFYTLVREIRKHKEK

| IC50 (SW620 cells (KRAS G12V); [6]) [nM] | IC50 (SW620 cells (KRAS G12V); [7]) [nM] | IC50 [1, 8] [nM] | IC50 [2] [nM] | IC50 [3] [nM] | IC50 [4, 9] [nM] | IC50 [5, 10] [nM] | IC50 (SW620 cells (KRAS G12V); [11]) [nM] | IC50 ([1]; KRAS G12R-GppNHp/RAF1 RBD HTRF) [nM] | IC50 ([4]; KRAS G12V-GppNHp/RAF1 RBD HTRF) [nM] | IC50 ([5]; KRAS WT-GppNHp/RAF1 RBD HTRF) [nM] | IC50 (SW620 cells (KRAS G12V); SW620 (KRAS G12V) cells) [nM] | IC50 (SW620 cells (KRAS G12V); [12]) [nM] | IC50 [1, 13] [nM] | IC50 [4, 14] [nM] | IC50 [5, 15] [nM] | SMILES |
| --- | --- | --- | --- | --- | --- | --- | --- | --- | --- | --- | --- | --- | --- | --- | --- | --- |
| < 100 | < 100 | < 100 | ≤ 100 | ≤ 100 | < 100 | < 100 |  |  |  |  |  |  |  |  |  | CCN(c1nc(OC[C@@]23CCCN2C[C@H](F)C3)nc2c(F)c(-c3ccc(F)c4sc(N)c(C#N)c34)c(C(F)(F)F)cc12)[C@H]1CCN(C(=O)[C@H]2CCO2)C1 (atropisomer, axis not shown) [Compound 577] |
| < 100 |  |  | 100 to 1000 | 1000 to 10000 |  |  | < 100 | 100 to 1000 | 100 to 1000 | 100 to 1000 |  |  |  |  |  | CCN(c1nc(OC[C@@]23CCCN2C[C@H](F)C3)nc2c(F)c(-c3ccc(F)c4sc(N)c(C#N)c34)c(C(F)(F)F)cc12)[C@@H]1CCN(C(=O)C(C)C)C1 [Compound 328] |
| < 100 | < 100 | < 100 | ≤ 100 | 100 to 1000 | < 100 | < 100 |  |  |  |  |  |  |  |  |  | CCN(c1nc(OC[C@@]23CCCN2C[C@H](F)C3)nc2c(F)c(-c3ccc(F)c4sc(N)c(C#N)c34)c(C(F)(F)F)cc12)[C@H]1CCN(C(=O)C2CC2)[C@@H]1C (atropisomer, axis not shown) [Compound 579] |
| < 100 | < 100 | < 100 | 100 to 1000 | 100 to 1000 | 100 to 1000 | 100 to 1000 |  |  |  |  |  |  |  |  |  | CCN(c1nc(OC[C@@]23CCCN2C[C@H](F)C3)nc2c(F)c(-c3ccc(F)c4sc(N)c(C#N)c34)c(C(F)(F)F)cc12)[C@H]1C[C@@H](C)N(C(=O)[C@H]2CCO2)C1 (atropisomer, axis not shown) [Compound 752] |
| < 100 | < 100 | < 100 | ≤ 100 | ≤ 100 | < 100 | < 100 |  |  |  |  |  |  |  |  |  | CCN(c1nc(OC[C@@]23CCCN2C[C@H](F)C3)nc2c(F)c(-c3ccc(F)c4sc(N)c(C#N)c34)c(C(F)(F)F)cc12)[C@H]1CCN(C(=O)C2CN(C(C)=O)C2)C1 (atropisomer, axis not shown) [Compound 638] |
|  |  |  | ≤ 100 | 100 to 1000 |  |  |  |  |  |  | < 100 | < 100 | < 100 | < 100 | < 100 | CN(c1nc(OC[C@@]23CCCN2C[C@H](F)C3)nc2c(F)c(-c3ccc(F)c4sc(N)c(C#N)c34)c(C(F)(F)F)cc12)[C@H]1C[C@@H](O)C1 [Compound 19, 2-amino-7-fluoro-4-((S)-8-fluoro-2-(((2R,7aS)-2-fluorotetrahydro-1H-pyrrolizin-7a(5H)-yl)methoxy)-4-(((1s,3R)-3-hydroxycyclobutyl)(methyl)amino)-6-(trifluoromethyl)quinazolin-7-yl)benzo[b]thiophene-3-carbonitrile] |
| < 100 | < 100 | < 100 | ≤ 100 | ≤ 100 | < 100 | < 100 |  |  |  |  |  |  |  |  |  | CCN(c1nc(OC[C@@]23CCCN2C[C@H](F)C3)nc2c(F)c(-c3ccc(F)c4sc(N)c(C#N)c34)c(C(F)(F)F)cc12)[C@H]1CCN(C(=O)[C@@H]2CCO2)C1 (atropisomer, axis not shown) [Compound 603] |
|  | < 100 | 1000 to 10000 | 1000 to 10000 | 1000 to 10000 | 1000 to 10000 | 100 to 1000 |  |  |  |  | < 100 |  |  |  |  | CCN(c1nc(OC[C@@]23CCCN2C[C@H](F)C3)nc2c(F)c(-c3ccc(F)c4sc(N)c(C#N)c34)c(C(F)(F)F)cc12)[C@@H]1CC(=O)N(C2CC2)C1 (atropisomer, axis not shown) [Compound 703] |
| < 100 | < 100 | < 100 | ≤ 100 | 100 to 1000 | < 100 | < 100 |  |  |  |  |  |  |  |  |  | CCN(c1nc(OC[C@@]23CCCN2C[C@H](F)C3)nc2c(F)c(-c3ccc(F)c4sc(N)c(C#N)c34)c(C(F)(F)F)cc12)[C@H]1C[C@H](COC)N(C(=O)C2CC2)C1 (atropisomer, axis not shown) [Compound 696] |
| < 100 | < 100 | < 100 | 100 to 1000 | 100 to 1000 | 100 to 1000 | < 100 |  |  |  |  |  |  |  |  |  | CCN(c1nc(OC[C@@]23CCCN2C[C@H](F)C3)nc2c(F)c(-c3ccc(F)c4sc(N)c(C#N)c34)c(C(F)(F)F)cc12)[C@H]1C[C@@H](C)N(C(=O)C2COC2)C1 (atropisomer, axis not shown) [Compound 586] |
| < 100 | < 100 | < 100 | 100 to 1000 | 100 to 1000 | < 100 | 100 to 1000 |  |  |  |  |  |  |  |  |  | CCN(c1nc(OC[C@@]23CCCN2C[C@H](F)C3)nc2c(F)c(-c3ccc(F)c4sc(N)c(C#N)c34)c(C(F)(F)F)cc12)[C@H]1CCN(C(=O)[C@@H]2C[C@@H]2C)C1 (atropisomer, axis not shown) [Compound 689] |
| < 100 | < 100 | 100 to 1000 | 100 to 1000 | 100 to 1000 | 100 to 1000 | 100 to 1000 |  |  |  |  |  |  |  |  |  | Cc1c(C(=O)N2CCCC2)nn2c1CN(c1nc(OCC34CCCN3CC(F)C4)nc3c(F)c(-c4ccc(F)c5sc(N)c(C#N)c45)c(C(F)(F)F)cc13)CC2 (stereo not shown) [Compound 744] |
| < 100 | < 100 | < 100 | ≤ 100 | ≤ 100 | < 100 | < 100 |  |  |  |  |  |  |  |  |  | CCN(c1nc(OC[C@@]23CCCN2C[C@H](F)C3)nc2c(F)c(-c3ccc(F)c4sc(N)c(C#N)c34)c(C(F)(F)F)cc12)[C@H]1CCN(C(=O)N(C)C)[C@@H]1C (atropisomer, axis not shown) [Compound 749] |
|  |  |  | 100 to 1000 | 100 to 1000 |  |  |  | 100 to 1000 | 100 to 1000 | 100 to 1000 | < 100 | < 100 |  |  |  | CC(=O)N1CC(N(C)c2nc(OCC34CCCN3CC(F)C4)nc3c(F)c(-c4ccc(F)c5sc(N)c(C#N)c45)c(C(F)(F)F)cc23)CC1C (stereo not shown) [Compound 291] |
| < 100 |  |  | 100 to 1000 | 100 to 1000 |  |  | < 100 |  |  |  |  |  | 100 to 1000 | 100 to 1000 | 100 to 1000 | N#Cc1c(N)sc2c(F)ccc(-c3c(C(F)(F)F)cc4c(N5CCCOCC5)nc(OC[C@@]56CCCN5C[C@H](F)C6)nc4c3F)c12 [Compound 232] |
| < 100 | < 100 | < 100 | ≤ 100 | ≤ 100 | < 100 | < 100 |  |  |  |  |  |  |  |  |  | CCN(c1nc(OC[C@@]23CCCN2C[C@H](F)C3)nc2c(F)c(-c3ccc(F)c4sc(N)c(C#N)c34)c(C(F)(F)F)cc12)[C@H]1CC(=O)N(C2CC2)C1 (atropisomer, axis not shown) [Compound 615] |
| < 100 | < 100 | < 100 | ≤ 100 | 100 to 1000 | < 100 | < 100 |  |  |  |  |  |  |  |  |  | CC(=O)N1CC[C@H](N(CCF)c2nc(OC[C@@]34CCCN3C[C@H](F)C4)nc3c(F)c(-c4ccc(F)c5sc(N)c(C#N)c45)c(C(F)(F)F)cc23)C1 (atropisomer, axis not shown) [Compound 622] |
| < 100 |  |  | 100 to 1000 | 100 to 1000 |  |  |  |  |  |  |  | < 100 | < 100 | < 100 | < 100 | CC(=O)N1CC[C@@H](N(C)c2nc(OC[C@@]34CCCN3C[C@H](F)C4)nc3c(F)c(-c4ccc(F)c5sc(N)c(C#N)c45)c(C(F)(F)F)cc23)[C@H]1C (single isomer, unassigned) [Compound 193] |
| < 100 | < 100 | < 100 | ≤ 100 | ≤ 100 | < 100 | < 100 |  |  |  |  |  |  |  |  |  | CCN(c1nc(OC[C@@]23CCCN2C[C@H](F)C3)nc2c(F)c(-c3ccc(F)c4sc(N)c(C#N)c34)c(C(F)(F)F)cc12)[C@H]1CCN(C(=O)N2CC(OC)C2)C1 (atropisomer, axis not shown) [Compound 607] |
